The results in this text go back to patent publication US5418162A, “Serotonin transporter CDNA” (Duke University, priority 1992, dated 1995).

As usually defined, the Ki is the equilibrium dissociation constant of an inhibitor or competing ligand from its target. As usually defined, the Km is the substrate concentration at which the rate is half of its maximum.

Some results are limits rather than exact numbers.

Data set [1] addresses rat 5HT transporter (rSERT) (Rattus norvegicus, UniProt P31652). Description: [3H]5HT transport assay in HeLa cells transfected with BS4E-10 cDNA (rSERT). The class given is cell-based.
Data set [2] concerns the target human 5HT transporter (hSERT) (Homo sapiens, UniProt P31645). As to the kind of experiment: [3H]5HT transport assay in HeLa cells transfected with hSERT cDNA.
The test system of data set [3] is NCCc1c[nH]c2ccc(O)cc12. As to the kind of experiment: cells, lysate or membranes. The settings on record: other: increasing concentrations of unlabeled 5HT, Eadie-Hofstee transformation, transfected HeLa cells; pH 7.4; 37.0 °C.

rat 5HT transporter (rSERT), sequence (P31652 whole entry): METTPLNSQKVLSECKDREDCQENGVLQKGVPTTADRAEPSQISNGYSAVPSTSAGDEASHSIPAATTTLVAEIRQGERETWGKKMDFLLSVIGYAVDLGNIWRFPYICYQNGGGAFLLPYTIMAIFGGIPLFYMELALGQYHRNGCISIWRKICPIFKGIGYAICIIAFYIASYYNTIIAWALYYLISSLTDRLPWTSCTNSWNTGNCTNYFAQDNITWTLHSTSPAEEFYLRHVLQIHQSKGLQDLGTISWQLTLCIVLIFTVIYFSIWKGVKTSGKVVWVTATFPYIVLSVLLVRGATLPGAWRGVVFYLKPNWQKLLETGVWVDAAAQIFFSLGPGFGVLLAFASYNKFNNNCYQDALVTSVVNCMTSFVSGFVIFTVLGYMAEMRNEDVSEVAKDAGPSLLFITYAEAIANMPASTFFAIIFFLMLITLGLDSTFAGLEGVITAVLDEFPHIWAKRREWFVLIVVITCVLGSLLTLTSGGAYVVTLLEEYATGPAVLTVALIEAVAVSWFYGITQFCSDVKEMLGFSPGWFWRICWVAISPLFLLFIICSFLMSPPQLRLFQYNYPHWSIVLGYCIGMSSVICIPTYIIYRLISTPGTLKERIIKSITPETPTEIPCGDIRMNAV
human 5HT transporter (hSERT), sequence (P31645 whole entry): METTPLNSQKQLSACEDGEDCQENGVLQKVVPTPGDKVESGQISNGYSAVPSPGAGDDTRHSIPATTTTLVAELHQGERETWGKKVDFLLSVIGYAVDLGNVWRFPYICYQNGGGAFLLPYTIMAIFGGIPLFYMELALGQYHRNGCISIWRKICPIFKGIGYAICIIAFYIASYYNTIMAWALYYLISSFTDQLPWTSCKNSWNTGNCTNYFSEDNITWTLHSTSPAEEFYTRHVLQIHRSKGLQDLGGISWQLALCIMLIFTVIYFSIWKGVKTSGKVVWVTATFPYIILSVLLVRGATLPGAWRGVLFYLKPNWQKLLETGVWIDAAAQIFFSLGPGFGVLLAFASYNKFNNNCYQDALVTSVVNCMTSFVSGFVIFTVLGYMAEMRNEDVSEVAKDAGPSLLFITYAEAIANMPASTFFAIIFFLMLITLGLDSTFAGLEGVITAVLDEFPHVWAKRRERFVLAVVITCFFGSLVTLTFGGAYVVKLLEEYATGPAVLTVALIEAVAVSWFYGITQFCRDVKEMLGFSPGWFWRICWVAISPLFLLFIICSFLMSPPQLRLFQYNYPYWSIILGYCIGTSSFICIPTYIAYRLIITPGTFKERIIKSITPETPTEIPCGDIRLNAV

For `COC(=O)[C@H]1[C@@H](OC(=O)c2ccccc2)C[C@@H]2CC[C@H]1N2C` [cocaine], the “potency for 5HT transport inhibition compared with inhibition of the cloned NA carrier” value in data set [1] (rSERT in transfected cells vs cloned NA transporter) is on record as “predictably lower potency”. Besides, the “antagonism of 5HT transport (in words)” value in data set [1] (transfected HeLa cells) was “blocked 5HT transport”. Moreover, in data set [2], the “inhibition of 5HT uptake (in words)” value is “block 5HT transport at low micromolar concentrations”. For the compound `NCCc1c[nH]cn1` [histamine], the Ki in data set [1] was over 10 µM. Still for that read-out and setting: in the case of `NCCc1ccc(O)c(O)c1` [Dopamine, dopamine] it was over 10 µM. In the case of `NC[C@H](O)c1ccc(O)c(O)c1` [noradrenaline], in data set [1], the Ki was over 10 µM. With “human 5HT transporter (hSERT) (Homo sapiens)”, in data set [3], the Km was determined as 0.463 µM.

For `COC(=O)[C@H]1[C@@H](c2ccc(I)cc2)C[C@@H]2CC[C@H]1N2C.O=C(O)C(O)C(O)C(=O)O` [RTI-55, 3β-[4-iodophenyl]tropan-2β-carboxylic acid methyl ester tartrate], the “inhibition of 5HT uptake (in words)” value in data set [2] is given as “increased potency over cocaine”. Turning to `OC1(c2ccc(Cl)cc2)c2ccccc2C2=NCCN21` (stereo not drawn) [mazindol], the affinity in data set [1], expressed as Ki, was 10 µM. As to `NCCc1c[nH]c2ccc(O)cc12` [5HT, 5-hydroxytryptamine], the “Vmax of 5HT transport” value in data set [1] (increasing concentrations of unlabeled 5HT, transfected HeLa cells) is 6.7×10^-18 mol/cell/min. For the same compound, the Km in data set [1] (read-out: Km of 5HT transport, increasing concentrations of unlabeled 5HT, transfected HeLa cells) is 1.5 µM.

On to `CC(N)Cc1ccccc1` (stereo not drawn) [amphetamine], for which the “inhibition of 5HT uptake (in words)” value in data set [2] was “block 5HT transport at low micromolar concentrations”.
